Values quoted from earlier work, collected in patent publication US20190055521A1, “Methods Of Propagating Rhinovirus C In Previously Unsusceptible Cell Lines” (Wisconsin Alumni Research Foundation, priority 2014, published 2019).
Like-named read-outs stand apart in the source and are kept apart here.

Tests used:
RV-A [1] = conditions: unmodified HeLa cells; previously documented
RV-B [2] = conditions: unmodified HeLa cells; previously documented
RV-B [3] = conditions: unmodified HeLa cells; drug added to cells before infection; previously documented
RV-A [4] = conditions: unmodified HeLa cells; drug added to cells before infection; previously documented

| Structure (SMILES) | inhibition of RV-A (RV-A [1]) | inhibition of RV-B (RV-B [2]) | inhibition of RV-B (RV-B [3]) | inhibition of RV-A (RV-A [4]) |
| --- | --- | --- | --- | --- |
| Cc1cc(CCCOc2c(C)cc(-c3noc(C(F)(F)F)n3)cc2C)on1 [Pleconaril] | inhibition | inhibition | – | – |
| CCOC(=O)/C=C/[C@H](C[C@@H]1CCNC1=O)NC(=O)[C@@H](CC(=O)[C@@H](NC(=O)c1cc(C)on1)C(C)C)Cc1ccc(F)cc1 [Rupintrivir] | – | – | inhibition | inhibition |
